Test results reported in PubChem BioAssay (NCI).
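A five-concentration, 48-hour dose response in 96-well plates underlies each endpoint, interpolated linearly between surrounding concentrations. TGI is the concentration that stops growth completely.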

Tests used:
Assay in all cases: NCI-60 cell line screen, 48 h
[1] = system: HOP-92 NSCLC
[2] = system: T-47D breast
[3] = system: OVCAR-8 ovarian
[4] = system: MDA-N
[5] = system: SK-MEL-5 melanoma
[6] = system: MALME-3M melanoma
[7] = system: OVCAR-3 ovarian
[8] = system: HOP-62 NSCLC
[9] = system: K-562 leukemia
[10] = system: MCF7 breast
[11] = system: M14 melanoma
[12] = system: SNB-19 CNS
[13] = system: OVCAR-5 ovarian
[14] = system: COLO 205 colon
[15] = system: CAKI-1 renal
[16] = system: KM12 colon
[17] = system: SW-620 colon
[18] = system: SK-OV-3 ovarian
[19] = system: SF-268 CNS
[20] = system: SF-539 CNS
[21] = system: MDA-MB-231 breast
[22] = system: RXF 393 renal
[23] = system: HL-60(TB) leukemia
[24] = system: HCT-15 colon
[25] = system: NCI-H522 lung
[26] = system: NCI/ADR-RES ovarian
[27] = system: A549 NSCLC
[28] = system: HCT-116 colon
[29] = system: OVCAR-4 ovarian
[30] = system: HT29 colon
[31] = system: NCI-H460 lung
[32] = system: SNB-75 CNS
[33] = system: U251 CNS
[34] = system: UO-31 renal
[35] = system: UACC-257 melanoma
[36] = system: IGROV1 ovarian
[37] = system: TK-10 renal
[38] = system: SF-295 CNS
[39] = system: HCC-2998 colon
[40] = system: CCRF-CEM leukemia
[41] = system: SK-MEL-2 melanoma
[42] = system: UACC-62 melanoma
[43] = system: NCI-H23 lung
[44] = system: HS 578T breast
[45] = system: EKVX NSCLC
[46] = system: RPMI-8226 leukemia
[47] = system: PC-3 prostate
[48] = system: NCI-H226 lung
[49] = system: BT-549 breast
[50] = system: SR leukemia
[51] = system: LOX IMVI melanoma
[52] = system: SK-MEL-28 melanoma
[53] = system: MDA-MB-435
[54] = system: A498 renal
[55] = system: 786-0 renal
[56] = system: ACHN renal
[57] = system: SN12C renal
[58] = system: DU-145 prostate

`CC1CC[C@@]2(OC1)OC1C[C@H]3[C@@H]4CC=C5C[C@@H](OC6OC(CO)C(OC7OC(CO)C(O)C(O)C7O)C(O)C6OC6OC(C)C(O)C(O)C6O)CC[C@]5(C)[C@H]4CC[C@]3(C)C1[C@@H]2C` (stereo partly drawn) gave a TGI [1] of 2.12 µM, a TGI [2] of 1.21 µM and a TGI [3] of 1.79 µM. For the same compound, the TGI [4] was 2.34 µM, the TGI [5] was 0.977 µM and the TGI [6] was 1.33 µM. It also gave a TGI [7] of 1.7 µM, a TGI [8] of 1.6 µM and a TGI [9] of 1.09 µM. It also gave a TGI [10] of 1.36 µM, a TGI [11] of 0.859 µM and a TGI [12] of 3.92 µM. The TGI [13] was 4.58 µM, the TGI [14] was 0.91 µM and the TGI [15] was 2.71 µM. The TGI [16] was 1.22 µM, the TGI [17] was 1.51 µM and the TGI [18] was 6.96 µM. It also gave a TGI [19] of 1.2 µM, a TGI [20] of 0.88 µM and a TGI [21] of 0.918 µM. For the same compound, the TGI [22] was 0.857 µM, the TGI [23] was 1.97 µM and the TGI [24] was 6.95 µM. The TGI [25] was 2.93 µM, the TGI [26] was 5.71 µM and the TGI [27] was 2.15 µM. It also gave a TGI [28] of 2.31 µM, a TGI [29] of 5.03 µM and a TGI [30] of 0.951 µM. The TGI [31] was 1.76 µM, the TGI [32] was 5.47 µM and the TGI [33] was 0.923 µM. For the same compound, the TGI [34] was 0.887 µM, the TGI [35] was 1.02 µM and the TGI [36] was 1.02 µM. It also gave a TGI [37] of 3.73 µM, a TGI [38] of 5.27 µM and a TGI [39] of 0.89 µM. For the same compound, the TGI [40] was 1.48 µM, the TGI [41] was 3.2 µM and the TGI [42] was 0.876 µM. The TGI [43] was 2.57 µM, the TGI [44] was 1.57 µM and the TGI [45] was 1.13 µM. For the same compound, the TGI [46] was 1.33 µM, the TGI [47] was 0.93 µM and the TGI [48] was 1.67 µM. It also gave a TGI [49] of 0.848 µM, a TGI [50] of 0.852 µM and a TGI [51] of 0.852 µM. For the same compound, the TGI [52] was 1.02 µM, the TGI [53] was 1.29 µM and the TGI [54] was 1.32 µM. It also gave a TGI [55] of 0.88 µM, a TGI [56] of 4.4 µM and a TGI [57] of 1.52 µM. For the same compound, the TGI [58] was 0.919 µM.
